Laboratory results: PubChem BioAssay (NCI)
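96-well plates; 48 h exposure; 5 concentrations. Endpoints by linear interpolation between flanking doses. Not reached: highest tested concentration assigned. TGI denotes the concentration required for complete inhibition of growth.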

How the values were obtained:
Assay in all cases: DTP human tumour cell line panel, 48 h
786-0 renal = system: 786-0 renal
A549 NSCLC = system: A549 NSCLC
DU-145 prostate = system: DU-145 prostate
HL-60(TB) leukemia = system: HL-60(TB) leukemia
LOX IMVI melanoma = system: LOX IMVI melanoma
RPMI-8226 leukemia = system: RPMI-8226 leukemia
SK-MEL-2 melanoma = system: SK-MEL-2 melanoma
SK-MEL-28 melanoma = system: SK-MEL-28 melanoma
SN12C renal = system: SN12C renal
SNB-19 CNS = system: SNB-19 CNS

| Structure (SMILES) | TGI (786-0 renal) | TGI (A549 NSCLC) | TGI (DU-145 prostate) | TGI (HL-60(TB) leukemia) | TGI (LOX IMVI melanoma) | TGI (RPMI-8226 leukemia) | TGI (SK-MEL-2 melanoma) | TGI (SK-MEL-28 melanoma) | TGI (SN12C renal) | TGI (SNB-19 CNS) |
| --- | --- | --- | --- | --- | --- | --- | --- | --- | --- | --- |
| CCOC(=O)c1ccc(Nc2c3c(nc4ccccc24)CCCC3)cc1 | > 100 µM | > 100 µM | > 100 µM | > 100 µM | > 100 µM | > 100 µM | > 100 µM | > 100 µM | > 100 µM | > 100 µM |
| CC1(C)N=C(C(N)=O)c2ncn(N)c2N1 | > 100 µM | > 100 µM | > 100 µM | > 100 µM | > 100 µM | > 100 µM |  | > 100 µM | > 100 µM | > 100 µM |
| CCN(CC)CC1CCCCN1CC(=O)N1c2ccccc2NC(=O)CC1C (configuration not stated) | > 100 µM | > 100 µM | > 100 µM | > 100 µM | > 100 µM | > 100 µM | > 100 µM | > 100 µM | > 100 µM | > 100 µM |
| Cc1nc(C)c(C(=O)NNC(N)=S)cc1C(=O)NNC(N)=S | > 100 µM | > 100 µM | > 100 µM | > 100 µM | > 100 µM | > 100 µM | > 100 µM | > 100 µM | > 100 µM | > 100 µM |
| NC(N)=N/N=C/c1nc2n(c1[N+](=O)[O-])CCS2 | > 100 µM | > 100 µM | 88.2 µM | 55 µM | 92.6 µM | > 100 µM | 44.7 µM | > 100 µM | > 100 µM | > 100 µM |
| Cn1c(=O)c(C(=O)Nc2nc(C34CC5CC(CC(C5)C3)C4)cs2)c(O)c2ccccc21 | > 100 µM | > 100 µM | > 100 µM | > 100 µM | > 100 µM | > 100 µM |  | > 100 µM | > 100 µM | > 100 µM |
| CC(C)/C(Cl)=N\OC(=O)Nc1ccccc1F | 29.9 µM | 35.6 µM | 30 µM | 4.13 µM | 6.92 µM | 92.6 µM | 33.2 µM | 30.4 µM | 26.8 µM | > 57.3 µM |
| COC(=O)c1c(O)ccc2c1c1c(n2Cc2ccccc2Cl)C(=O)c2ccccc2C1=O | 36.4 µM | 26.7 µM | 29 µM | 49.6 µM |  | 29.5 µM | 33.8 µM | 29.4 µM | 23.2 µM | 33.7 µM |
| COC(=O)/C(=C\Nc1cccc(C)n1)S(=O)(=O)c1ccc(C)cc1 | > 100 µM | > 100 µM | > 100 µM | 53.3 µM | > 100 µM | > 100 µM | > 100 µM | > 100 µM | > 100 µM | > 100 µM |
| COC(=O)C1C/C(=C/N(C)C)C(=S)N1 (configuration not stated) | > 100 µM | > 100 µM | > 100 µM |  |  | > 100 µM | > 100 µM | > 100 µM |  | > 100 µM |
| CCCSc1ccc2[nH]c(N3C(=O)/C(=C/c4ccco4)N=C3c3ccccc3)cc2c1 | > 50 µM | > 50 µM | > 50 µM | > 50 µM | > 50 µM | > 50 µM | 24.4 µM | > 50 µM | > 50 µM | > 50 µM |
| Nn1c(COc2cccc(OCc3n[nH]c(=S)n3N)c2)n[nH]c1=S | > 100 µM | > 100 µM | > 100 µM | > 100 µM | > 100 µM | > 100 µM | > 100 µM | > 100 µM | > 100 µM | > 100 µM |
| CC(=O)OCCOCn1c2c(c(=S)[nH]c1=O)CCC2 | > 100 µM | > 100 µM | > 100 µM | > 100 µM | > 100 µM | > 100 µM | > 100 µM | > 100 µM | > 100 µM | > 100 µM |
| O=C(c1ccccc1)N1CCN(C(=S)N(C(=O)c2ccccc2)c2ccccc2)C1=S | 5.31 µM | 19.1 µM | 10.6 µM | 3.81 µM | 3.67 µM |  | 23.5 µM | 9.55 µM | 12.2 µM | 26.3 µM |
| O=CN1CCN(C(=O)c2ccc(Cl)cc2Cl)C1=S | > 100 µM | > 100 µM | > 100 µM | 69.2 µM | > 100 µM | > 100 µM | > 100 µM | > 100 µM | > 100 µM | > 100 µM |
| S=C(NC1=NCC(CN2CCN(c3ccccc3)CC2)O1)Nc1ccccc1 (configuration not stated) | > 100 µM | > 100 µM | > 100 µM | > 100 µM | 61.8 µM | > 100 µM | > 100 µM | > 100 µM | > 100 µM | > 100 µM |
| COC(=O)CCC(=O)NC1=C(NCc2ccccc2)C(=O)c2ccccc2C1=O | > 100 µM | > 100 µM | > 100 µM | > 100 µM | 77.2 µM | > 100 µM | 67.1 µM | > 100 µM | 88.2 µM | > 100 µM |
| CN(CCn1cnc2c1c(=O)n(C)c(=O)n2C)C1CCCCC1 | > 100 µM | > 100 µM | > 100 µM | > 100 µM | > 100 µM | > 100 µM | > 100 µM | > 100 µM | > 100 µM | > 100 µM |
| O=C(/C=C/c1ccc(O)c(O)c1)OCCCc1ccccc1 | 18.1 µM | 31.3 µM | 31.6 µM | 4.84 µM | 27.1 µM | 49.4 µM | 46.4 µM | 31.2 µM | 25.3 µM | 33.6 µM |
| O=C(c1ccco1)N1CCCN(C(=O)c2ccco2)C1=S | > 100 µM |  | > 100 µM | > 100 µM | > 100 µM | > 100 µM | > 100 µM | > 100 µM | > 100 µM | > 100 µM |
| COC(=O)C(Cc1c(C2Nc3ccccc3C2CC(NC(=O)CNC(C)=O)C(=O)OC)[nH]c2ccccc12)NC(=O)CNC(C)=O (configuration not stated) | > 100 µM | > 100 µM | > 100 µM | > 100 µM | > 100 µM | > 100 µM | > 100 µM | > 100 µM | > 100 µM | > 100 µM |
